The conditions of this data set: both, human, serum, iv, 5 mg.

A word on the AUC(0-inf): it is total exposure, with the tail of the curve extrapolated. A high value points to high exposure. As a reminder, the Cmax is the highest concentration seen after dosing. The half-life is the time needed for the level to fall by half in the phase considered. A high value points to slow loss. `CNC1(c2ccccc2Cl)CCCCC1=O` (racemic) [(±)-ketamine, 2-(2-chlorophenyl)-2-(methylamino)cyclohexan-1-one] had an AUC(0-inf) of 59.9 ± 13.2 ng·h/mL, a Cmax of 33.7 ± 9.74 ng/mL and a half-life of 6.99 ± 5.22 h.

Values taken from US11103467B2, “Method for treating depression” (DEVELCO PHARMA SCHWEIZ AG, priority 2014, dated 2021).
